In ChEMBL document CHEMBL1138060, “3-arylimino-2-indolones are potent and selective galanin GAL3 receptor antagonists” (J Med Chem, 2006):
Values belong to the molecule of their own block, whether it stands above or below them. Activity calls are given as the source filed them. The calls are words filed in the database; no cut-off is given here.

Key:
[1] = target: T1, Galanin receptor type 3 (Homo sapiens, UniProt O60755); test: Displacement of [125I]galanin from human GAL3
T1 sequence (O60755 whole entry): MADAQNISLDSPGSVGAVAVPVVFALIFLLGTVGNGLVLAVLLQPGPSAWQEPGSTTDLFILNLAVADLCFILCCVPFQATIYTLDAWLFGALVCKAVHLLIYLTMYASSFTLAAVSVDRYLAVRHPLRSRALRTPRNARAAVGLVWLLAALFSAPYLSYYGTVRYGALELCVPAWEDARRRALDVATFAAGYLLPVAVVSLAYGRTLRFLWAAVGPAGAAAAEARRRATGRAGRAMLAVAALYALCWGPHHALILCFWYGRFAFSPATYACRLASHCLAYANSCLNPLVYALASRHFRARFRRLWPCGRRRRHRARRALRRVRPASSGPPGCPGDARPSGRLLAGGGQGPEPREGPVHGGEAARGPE

[2] = Drug level in rat plasma at 10 mg/kg, pp after 2 hrs; type: ADME, organism-based; parameters: dose 10 mg/kg
[3] = Drug level in rat brain at 10 mg/kg, sc after 2 hrs; type: ADME, organism-based; parameters: dose 10 mg/kg, route subcutaneous; conditions: read-out: Drug uptake
[4] = Drug level in rat plasma at 10 mg/kg, sc after 2 hrs; type: ADME, organism-based; parameters: dose 10 mg/kg, route subcutaneous
[5] = Drug level in rat plasma at 30 mg/kg, ip after 2 hrs; type: ADME, organism-based; parameters: dose 30 mg/kg, route intraperitoneal
[6] = Drug level in rat brain at 30 mg/kg, ip after 2 hrs; type: ADME, organism-based; parameters: dose 30 mg/kg, route intraperitoneal; conditions: read-out: Drug uptake
[7] = Drug level in rat plasma at 30 mg/kg, ip after 4 hrs; type: ADME, organism-based; parameters: dose 30 mg/kg, route intraperitoneal
[8] = Drug level in rat brain at 30 mg/kg, ip after 4 hrs; type: ADME, organism-based; parameters: dose 30 mg/kg, route intraperitoneal; conditions: read-out: Drug uptake
[9] = target: T2, 5-hydroxytryptamine receptor 4 (Homo sapiens, UniProt Q13639); test: Binding affinity to human 5HT4
T2 sequence (Q13639 whole entry): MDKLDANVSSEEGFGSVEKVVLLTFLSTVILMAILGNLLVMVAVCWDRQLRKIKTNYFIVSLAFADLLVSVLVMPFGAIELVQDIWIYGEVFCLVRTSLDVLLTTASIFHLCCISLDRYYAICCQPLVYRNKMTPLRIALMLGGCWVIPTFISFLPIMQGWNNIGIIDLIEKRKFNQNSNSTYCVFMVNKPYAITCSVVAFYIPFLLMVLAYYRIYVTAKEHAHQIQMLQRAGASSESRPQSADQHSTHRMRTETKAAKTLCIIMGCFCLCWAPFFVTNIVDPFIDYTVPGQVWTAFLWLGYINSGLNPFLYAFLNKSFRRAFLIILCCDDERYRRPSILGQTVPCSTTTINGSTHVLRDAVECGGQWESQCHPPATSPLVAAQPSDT

[10] = target: T2, 5-hydroxytryptamine receptor 4; test: Agonist activity at human 5HT4 upto 10 uM; type: functional
[11] = target: T2, 5-hydroxytryptamine receptor 4; test: Antagonist activity against human 5HT4 upto 10 uM; type: functional

Structure (SMILES): O=C1Nc2ccccc2/C1=N\c1cccc(Cl)c1Cl
Ki [1]: 437 nM

Structure (SMILES): O=C1Nc2ccccc2/C1=N\c1ccc(Cl)cc1
Ki [1]: 850 nM

Structure (SMILES): O=C1/C(=N/c2cccc(C(F)(F)F)c2)c2ccccc2N1c1ccccc1
concentration at 2 h [2]: 90 ng/mL
concentration at 2 h [3]: 350 ng/g
concentration at 2 h [4]: 990 ng/mL
concentration at 2 h [5]: 780 ng/mL
concentration at 2 h [6]: 1060 ng/g
concentration at 4 h [7]: 1680 ng/mL
concentration at 4 h [8]: 1210 ng/g
Ki [9]: 72 nM
Activity [10]: inactive
Activity [11]: inactive

Structure (SMILES): O=C1Nc2ccccc2/C1=N\c1cccc(C(F)(F)F)c1
Ki [1]: 596 nM

Structure (SMILES): COc1ccc(/N=C2/C(=O)Nc3ccccc32)cc1
Ki [1]: > 10000 nM

Results, then the molecule that gave them:

Ki [1]: 52 nM
Structure (SMILES): CCC(CC)N1C(=O)/C(=N/c2ccc(C(F)(F)F)cc2)c2ccccc21

Ki [1]: 89 nM
Structure (SMILES): C#CCN1C(=O)/C(=N/c2cccc(C(F)(F)F)c2)c2ccccc21

Ki [1]: 150 nM
Structure (SMILES): C=CCN1C(=O)/C(=N/c2ccc(Cl)c(Cl)c2)c2ccccc21
